Source: patent publication US10577363B2, “Substituted piperidine compounds” (EPIZYME, INC., priority 2014, dated 2020)

Legend:
[1] = target: T1, SMYD3 (Homo sapiens (Human), UniProt Q9H7B4); test: SMYD3 biochemical assay (SPA, 3H-SAM methylation of MEKK2 protein substrate); conditions: read-out: SMYD3 Biochem IC50
Outline: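 Enzyme: untagged full-length human SMYD3 from E. coli; substrate GST-tagged MEKK2 from insect cells. Buffer 25 mM Tris-Cl pH 8.0, 1 mM TCEP, 0.005% BSG/Tween 20. 30 min compound–enzyme preincubation at RT; 3H-SAM/MEKK2 start; stop with cold SAM (100 uM final); SPA readout in cpm.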

[2] = target: T1, SMYD3; test: SMYD3 cell assay (Trimethyl-MEKK2 In-Cell Western in 293T/17 cells); assay type: cell-based; conditions: read-out: SMYD3 Cell IC50
Outline: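 In-Cell Western readout: methanol-fixed cells stained for trimethyl-MEKK2 and flag tag, ratio per well normalized to DMSO and background controls.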

[3] = Table 1A, IC50 values are an average of n = 1 to n = 50

T1 sequence (Q9H7B4 whole entry): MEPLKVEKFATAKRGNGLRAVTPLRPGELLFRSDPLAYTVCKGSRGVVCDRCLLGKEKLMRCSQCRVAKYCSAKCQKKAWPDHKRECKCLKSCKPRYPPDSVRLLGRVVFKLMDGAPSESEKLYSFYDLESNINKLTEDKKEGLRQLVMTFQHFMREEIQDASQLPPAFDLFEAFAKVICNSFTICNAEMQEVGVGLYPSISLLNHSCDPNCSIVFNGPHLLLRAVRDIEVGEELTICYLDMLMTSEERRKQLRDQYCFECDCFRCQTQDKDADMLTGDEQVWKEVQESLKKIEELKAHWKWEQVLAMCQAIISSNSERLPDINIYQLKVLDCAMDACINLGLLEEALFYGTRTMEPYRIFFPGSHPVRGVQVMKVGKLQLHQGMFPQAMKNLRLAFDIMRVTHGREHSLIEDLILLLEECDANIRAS

Compound | IC50 [1, 3] [nM] | IC50 [2, 3] [nM] | IC50 [1] [nM] | IC50 ([1]; Table 2A) [nM] | IC50 ([2]; Table 2A) [nM]
O=C(N[C@H]1CCN(S(=O)(=O)CCCN2CCOCC2)[C@H](Cc2ccccc2)C1)c1cc(C2CC2)on1 [compound 498, N-((2R,4S)-2-benzyl-1-((3-morpholinopropyl)sulfonyl)piperidin-4-yl)-5-cyclopropylisoxazole-3-carboxamide] | 9960 | > 10000 |  |  | 
O=C(N[C@H]1CCN(S(=O)(=O)CCN2CCOCC2)[C@H](Cc2ccccc2)C1)c1cc(C2CC2)on1 [compound 499, N-((2R,4S)-2-benzyl-1-((2-morpholinoethyl)sulfonyl)piperidin-4-yl)-5-cyclopropylisoxazole-3-carboxamide] | > 10000 | > 10000 |  |  | 
CC(C)[C@@H]1C[C@H](NC(=O)c2cc(C3CC3)on2)CCN1S(=O)(=O)CCCN [compound 502, N-((2S,4R)-1-((3-aminopropyl)sulfonyl)-2-isopropylpiperidin-4-yl)-5-cyclopropylisoxazole-3-carboxamide] | 766 | > 10000 |  |  | 
CC(C)[C@H]1C[C@H](NC(=O)c2cc(C3CC3)on2)CCN1S(=O)(=O)CCCN [compound 503, N-((2R,4R)-1-((3-aminopropyl)sulfonyl)-2-isopropylpiperidin-4-yl)-5-cyclopropylisoxazole-3-carboxamide] | 1060 | > 10000 |  |  | 
COCCN(C)c1ccc(S(=O)(=O)N2CC[C@H](NC(=O)c3cc(C4CC4)on3)C[C@H]2C)cn1 [compound 504, 5-cyclopropyl-N-((2R,4S)-1-((6-((2-methoxyethyl)(methyl)amino)pyridin-3-yl)sulfonyl)-2-methylpiperidin-4-yl)isoxazole-3-carboxamide] | > 10000 | > 10000 |  |  | 
COCCNc1ccc(S(=O)(=O)N2CC[C@@H](NC(=O)c3cc(C4CC4)on3)C[C@@H]2C)cn1 [compound 505, 5-cyclopropyl-N-((2S,4R)-1-((6-((2-methoxyethyl)amino)pyridin-3-yl)sulfonyl)-2-methylpiperidin-4-yl)isoxazole-3-carboxamide] |  | > 10000 | > 10000 |  | 
C[C@@H]1C[C@@H](NC(=O)c2cc(C3CC3)on2)CCN1S(=O)(=O)c1ccc(NCCN2CCOCC2)nc1 [compound 506, 5-cyclopropyl-N-((2R,4S)-2-methyl-1-((6-((2-morpholinoethyl)amino)pyridin-3-yl)sulfonyl)piperidin-4-yl)isoxazole-3-carboxamide] | 3970 | > 10000 |  |  | 
C[C@H]1C[C@H](NC(=O)c2cc(C3CC3)on2)CCN1S(=O)(=O)c1ccc(NCCN2CCOCC2)nc1 [compound 507, 5-cyclopropyl-N-((2S,4R)-2-methyl-1-((6-((2-morpholinoethyl)amino)pyridin-3-yl)sulfonyl)piperidin-4-yl)isoxazole-3-carboxamide] | 5540 | > 10000 |  |  | 
O=C(N[C@H]1C[C@H]2CC[C@@H](C1)N2S(=O)(=O)CC1CCNCC1)c1cc(C2CC2)on1 [compound 526, 5-cyclopropyl-N-((1R,3r,5S)-8-((piperidin-4-ylmethyl)sulfonyl)-8-azabicyclo[3.2.1]octan-3-yl)isoxazole-3-carboxamide] | 1 | 15 |  |  | 
O=C(N[C@H]1C[C@H]2CC[C@@H](C1)N2S(=O)(=O)N1CCNCC1)c1cc(C2CC2)on1 [compound 527, 5-cyclopropyl-N-((1R,3r,5S)-8-(piperazin-1-ylsulfonyl)-8-azabicyclo[3.2.1]octan-3-yl)isoxazole-3-carboxamide] | 3 | 32 |  |  | 
C[C@H]1C[C@@H](NC(=O)c2cc(C3CC3)on2)CCN1S(=O)(=O)CC1CCN(CCc2ccccc2)CC1 [compound 530, 5-cyclopropyl-N-((2S,4S)-2-methyl-1-(((1-phenethylpiperidin-4-yl)methyl)sulfonyl)piperidin-4-yl)isoxazole-3-carboxamide] |  |  |  | 0.9 | 23.9
O=C(N[C@H]1C[C@H]2CC[C@@H](C1)N2S(=O)(=O)CC1CCN(CCO)CC1)c1cc(C2CC2)on1 [compound 531, 5-cyclopropyl-N-((1R,3r,5S)-8-(((1-(2-hydroxyethyl)piperidin-4-yl)methyl)sulfonyl)-8-azabicyclo[3.2.1]octan-3-yl)isoxazole-3-carboxamide] |  |  |  | 0.9 | 33.1
C[C@H]1C[C@@H](NC(=O)c2cc(C3CC3)on2)CCN1S(=O)(=O)CC1CCN(C)CC1 [compound 533, 5-cyclopropyl-N-((2S,4S)-2-methyl-1-(((1-methylpiperidin-4-yl)methyl)sulfonyl)piperidin-4-yl)isoxazole-3-carboxamide] |  |  |  | 1 | 30.8
O=C(N[C@H]1C[C@H]2CC[C@@H](C1)N2S(=O)(=O)CC1CCN(CCCO)CC1)c1cc(C2CC2)on1 [compound 534, 5-cyclopropyl-N-((1R,3r,5S)-8-(((1-(3-hydroxypropyl)piperidin-4-yl)methyl)sulfonyl)-8-azabicyclo[3.2.1]octan-3-yl)isoxazole-3-carboxamide] |  |  |  | 1.1 | 27.7
CNC1CCN(S(=O)(=O)N2CC[C@H](NC(=O)c3cc(C4CC4)on3)C[C@@H]2C)CC1 [compound 535, 5-cyclopropyl-N-((2S,4S)-2-methyl-1-((4-(methylamino)piperidin-1-yl)sulfonyl)piperidin-4-yl)isoxazole-3-carboxamide] |  |  |  | 1.2 | 21.2
O=C(N[C@H]1C[C@H]2CC[C@@H](C1)N2S(=O)(=O)CC1CCN(Cc2ccccc2)CC1)c1cc(C2CC2)on1 [compound 536, N-((1R,3r,5S)-8-(((1-benzylpiperidin-4-yl)methyl)sulfonyl)-8-azabicyclo[3.2.1]octan-3-yl)-5-cyclopropylisoxazole-3-carboxamide] |  |  |  | 1.2 | 58
C[C@@H]1C[C@H](NC(=O)c2cc(C3CC3)on2)CCN1S(=O)(=O)CC1CCN(CCc2ccccc2)CC1 [compound 537, 5-cyclopropyl-N-((2R,4R)-2-methyl-1-(((1-phenethylpiperidin-4-yl)methyl)sulfonyl)piperidin-4-yl)isoxazole-3-carboxamide] |  |  |  | 1.3 | 72.5
C[C@H]1C[C@@H](NC(=O)c2cc(C3CC3)on2)CCN1S(=O)(=O)CC1CCN(CCO)CC1 [compound 538, 5-cyclopropyl-N-((2S,4S)-1-(((1-(2-hydroxyethyl)piperidin-4-yl)methyl)sulfonyl)-2-methylpiperidin-4-yl)isoxazole-3-carboxamide] |  |  |  | 1.3 | 29.4
COCCCN1CCC(CS(=O)(=O)N2[C@@H]3CC[C@H]2C[C@@H](NC(=O)c2cc(C4CC4)on2)C3)CC1 [compound 542, 5-cyclopropyl-N-((1R,3r,5S)-8-(((1-(3-methoxypropyl)piperidin-4-yl)methyl)sulfonyl)-8-azabicyclo[3.2.1]octan-3-yl)isoxazole-3-carboxamide] |  |  |  | 1.6 | 49.6
C[C@H]1C[C@@H](NC(=O)c2cc(C3CC3)on2)CCN1S(=O)(=O)CC1CCN(Cc2ccccc2)CC1 [compound 544, N-((2S,4S)-1-(((1-benzylpiperidin-4-yl)methyl)sulfonyl)-2-methylpiperidin-4-yl)-5-cyclopropylisoxazole-3-carboxamide] |  |  |  | 1.9 | 44.7
C[C@H]1C[C@@H](NC(=O)c2cc(C3CC3)on2)CCN1S(=O)(=O)N1CCC(N(C)C)CC1 [compound 545, 5-cyclopropyl-N-((2S,4S)-1-((4-(dimethylamino)piperidin-1-yl)sulfonyl)-2-methylpiperidin-4-yl)isoxazole-3-carboxamide] |  |  |  | 2 | 39.9
C[C@H]1C[C@@H](NC(=O)c2cc(C3CC3)on2)CCN1S(=O)(=O)N1CCC(NCc2ccccc2)CC1 [compound 546, N-((2S,4S)-1-((4-(benzylamino)piperidin-1-yl)sulfonyl)-2-methylpiperidin-4-yl)-5-cyclopropylisoxazole-3-carboxamide] |  |  |  | 2.1 | 36
O=C(N[C@H]1C[C@H]2CC[C@@H](C1)N2S(=O)(=O)CC1CCCNC1)c1cc(C2CC2)on1 (stereo partly drawn) [compound 547, 5-cyclopropyl-N-((1R,3r,5S)-8-((piperidin-3-ylmethyl)sulfonyl)-8-azabicyclo[3.2.1]octan-3-yl)isoxazole-3-carboxamide] |  |  |  | 2.3 | 70.4
C[C@H]1C[C@@H](NC(=O)c2cc(C3CC3)on2)CCN1S(=O)(=O)CCCCN [compound 548, N-((2S,4S)-1-((4-aminobutyl)sulfonyl)-2-methylpiperidin-4-yl)-5-cyclopropylisoxazole-3-carboxamide] |  |  |  | 2.4 | 94.1
O=C(N[C@H]1C[C@H]2CC[C@@H](C1)N2S(=O)(=O)CC1CCN(CCN2CCCCC2)CC1)c1cc(C2CC2)on1 [compound 549, 5-cyclopropyl-N-((1R,3r,5S)-8-(((1-(2-(piperidin-1-yl)ethyl)piperidin-4-yl)methyl)sulfonyl)-8-azabicyclo[3.2.1]octan-3-yl)isoxazole-3-carboxamide] |  |  |  | 2.5 | 312
CC(C)N1CCC(CS(=O)(=O)N2CC[C@H](NC(=O)c3cc(C4CC4)on3)C[C@@H]2C)CC1 [compound 550, 5-cyclopropyl-N-((2S,4S)-1-(((1-isopropylpiperidin-4-yl)methyl)sulfonyl)-2-methylpiperidin-4-yl)isoxazole-3-carboxamide] |  |  |  | 2.6 | 168
